Results taken from ChEMBL document CHEMBL1134895, “Synthesis and dopamine transporter binding affinities of 3alpha-benzyl-8-(diarylmethoxyethyl)-8-azabicyclo[3.2.1]octanes” (Bioorg Med Chem Lett, 2002).

Target: Sodium-dependent dopamine transporter (Rattus norvegicus, UniProt P23977)
Test: Displacement of [3H]WIN-35428 from dopamine transporter of rat caudate putamen tissue
Format: tissue-based

Chain of Sodium-dependent dopamine transporter (P23977 whole entry): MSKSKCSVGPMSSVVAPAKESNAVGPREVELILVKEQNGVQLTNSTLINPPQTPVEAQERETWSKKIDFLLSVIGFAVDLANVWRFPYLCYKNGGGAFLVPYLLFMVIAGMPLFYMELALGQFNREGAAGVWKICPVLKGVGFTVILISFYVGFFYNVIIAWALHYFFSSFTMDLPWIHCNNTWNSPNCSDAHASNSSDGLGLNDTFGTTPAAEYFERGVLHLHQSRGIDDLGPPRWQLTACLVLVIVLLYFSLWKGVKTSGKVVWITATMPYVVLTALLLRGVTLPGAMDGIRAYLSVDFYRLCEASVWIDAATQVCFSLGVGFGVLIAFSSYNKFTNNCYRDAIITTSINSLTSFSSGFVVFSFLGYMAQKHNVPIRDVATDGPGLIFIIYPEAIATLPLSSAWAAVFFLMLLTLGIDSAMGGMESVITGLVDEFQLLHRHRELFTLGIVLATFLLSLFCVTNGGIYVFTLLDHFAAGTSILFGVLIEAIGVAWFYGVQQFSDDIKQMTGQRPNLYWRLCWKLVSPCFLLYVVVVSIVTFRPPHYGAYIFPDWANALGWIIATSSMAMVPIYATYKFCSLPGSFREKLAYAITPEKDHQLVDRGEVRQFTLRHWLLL

Row | Compound | Ki [nM]
1 | Clc1ccc(C(OCCN2C3CCC2CC(Cc2ccccc2)C3)c2ccccc2)cc1 (centres undefined) | 198
2 | Cc1ccc(C(OCCN2C3CCC2CC(Cc2ccccc2)C3)c2ccc(C)cc2)cc1 (centres undefined) | 217
3 | COc1ccc(C(OCCN2C3CCC2CC(Cc2ccccc2)C3)c2ccc(OC)cc2)cc1 (centres undefined) | 135
4 | c1ccc(CC2CC3CCC(C2)N3CCOC(c2ccccc2)c2ccccc2)cc1 (centres undefined) | 98
5 | Fc1ccc(C(OCCN2C3CCC2CC(Cc2ccccc2)C3)c2ccc(F)cc2)cc1 (centres undefined) | 144
6 | c1ccc(CN2C3CCC2CC(CCOC(c2ccccc2)c2ccccc2)C3)cc1 (centres undefined) | 99
7 | Clc1ccc(C(OCCN2C3CCC2CC(Cc2ccccc2)C3)c2ccc(Cl)cc2)cc1 (centres undefined) | 346
8 | Fc1ccc(C(OCCC2CCN(CCCc3ccccc3)CC2)c2ccc(F)cc2)cc1 | 25
9 | Fc1ccc(C(OCCN2CCC(CCCc3ccccc3)CC2)c2ccc(F)cc2)cc1 | 595
